What follows are compounds tested on CCRF-CEM cancer cells - leukemia (assay: Fluorometric Microculture Cytotoxicity Assay (FMCA), CCRF-CEM). Conditions: Homo sapiens, 72 h incubation.
Type: cell-based
Excerpt: The Fluorometric Microculture Cytotoxicity Assay, FMCA (Larsson, R., et al.; Anticancer Res, 1989, 9, 1111-1119), is a three day non-clonogenic microplate-based cell viability assay used for measurement of the cytotoxic and/or cytostatic effect of compounds in vitro (Lindhagen, E. et al.; Nat. Protoc., 2008, 3, 1364-1369). FMCA represents a valuable method to measure cytotoxicity in a number of cell types, both cell lines and primary cells from patients (Larsson, R., et al.; Int. J. Cancer, 1992, 50, 177-185; Fridborg, H., et al.; Eur. J. Cancer, 1999. 35, 424-432; Dhar, S., et al.; Br. J. Cancer, 1996, 74, 888-896).
FMCA is based on the principle that fluorescein diacetate (FDA) is converted to the fluorescent probe fluorescein by esterases in the plasma membranes of living cells. For experiments, 96 or 384-well microplates are prepared with compounds and stored at −70° C. until use. Cells are then seeded into the drug-prepared plates and placed in an incubator for 72 h. On the last day of incubation, the plates are washed and a buffer containing FDA is added and incubated with the cells for 45 minutes. Finally the fluorescence per well is measured in a fluorometer and a Survival Index % (SI) for each compound-treated well is calculated with the equation: Compound-treated cells minus blank divided by control cells minus blank. A high SI-value indicates a large percentage of living cells and vice versa.
In subsequent experiments, compounds were tested, along with a number of approved cancer drugs (dasatinib, pazopanib, sorafenib, and sunitinib) as described above. Initially, the acute lymphoblastic leukemia cell line CCRF-CEM was used throughout. In the assay plates, medium was added to six empty wells (blank wells) and wells were filled with PBS and cell suspension and served as control wells. SI-values were then calculated for each compound-treated well as described above. All experiments were conducted twice and a new batch of plates was prepared for each experiment.
For dose-response experiments, 384-well plates were prepared as follows:
Compounds of the invention as well comparative kinase inhibitors sorafenib sunitinib, dasatinib, pazopanib and a reference compound disclosed in WO 2009/071535 (compound #107) were diluted with PBS to a concentration ten-times higher than the desired starting concentration. Then, a Biomek 2000 liquid handling system was employed to serially dilute the compounds in a deep-well 384-well plate. From this plate, assay plates containing 5 μl compound per well were prepared with the Biomek 2000. Certain compounds precipitated when diluted with PBS, and these compounds were therefore prepared in a 96-well plate manually as described above using culture medium RPMI 1640 instead of PBS.
The compounds were also tested at five concentrations, with five times serial dilution on the following cell types: CCRF-CEM, hTERT-RPE1 (normal retinal epithelial cells), hRPTEpiC (normal renal cells), and peripheral blood mononuclear cells (PBMC). Each experiment was performed three times, except for PBMC and hRPTEpiC, which were performed twice. SI-values were calculated, graphs were plotted using GraphPadPrism 5.0 (GraphPad Software Inc. La Jolla, Calif.) and IC50-values for each cell type and compound were determined from the curves.
`c1ccc2c(CCNc3nccc(Nc4ccc5[nH]ccc5c4)n3)c[nH]c2c1` [Example 1, N^2-[2-(1H-indol-3-yl)ethyl]-N^4-(1H-indol-5-yl)pyrimidine-2,4-diamine] gave an EC50 of 4100 nM.
In the case of `COc1ccc2[nH]cc(CCNc3nccc(Nc4ccc5[nH]ccc5c4)n3)c2c1` [Example 2, N^4-(1H-indol-5-yl)-N^2-[2-(5-methoxy-1H-indol-3-yl)ethyl]pyrimidine-2,4-diamine], the EC50 is reported as 140 nM.
Compound `Cc1cc2cc(Nc3ccnc(NCCc4c[nH]c5ccccc45)n3)ccc2[nH]1` [Example 3, N^2-[2-(1H-indol-3-yl)ethyl]-N^4-(2-methyl-1H-indol-5-yl)pyrimidine-2,4-diamine] has an EC50 of 290 nM.
For `Cc1cc2cc(Nc3ccnc(NCCc4c[nH]c5ccc(OCCN6CCOCC6)cc45)n3)ccc2[nH]1` [Example 6, N^4-(2-methyl-1H-indol-5-yl)-N^2-{2-[5-(2-morpholinoethoxy)-1H-indol-3-yl]ethyl}pyrimidine-2,4-diamine], the EC50 was 2900 nM.
`Cc1cc2cc(Nc3ccnc(NCCc4c[nH]c5ccc(OC(F)(F)F)cc45)n3)ccc2[nH]1` [Example 7, N^4-(2-methyl-1H-indol-5-yl)-N^2-{2-[5-(trifluoromethoxy)-1H-indol-3-yl]ethyl}pyrimidine-2,4-diamine] was tested, and the EC50 was 140 nM.
`Cc1cc2cc(Nc3ccnc(NCCc4c[nH]c5ccc(O)cc45)n3)ccc2[nH]1` [Example 8, 3-{2-[4-(2-methyl-1H-indol-5-ylamino)pyrimidin-2-ylamino]ethyl}-1H-indol-5-ol] gave an EC50 of 3100 nM.
For `Cc1cc2cc(Nc3ccnc(NCCc4c[nH]c5ccc(F)cc45)n3)ccc2[nH]1` [Example 10, N^2-[2-(5-fluoro-1H-indol-3-yl)ethyl]-N^4-(2-methyl-1H-indol-5-yl)pyrimidine-2,4-diamine], the EC50 was 280 nM.
For `COc1ccc2c(CCNc3nccc(Nc4ccc5[nH]c(C)cc5c4)n3)c[nH]c2c1` [Example 11, N^2-[2-(6-methoxy-1H-indol-3-yl)ethyl]-N^4-(2-methyl-1H-indol-5-yl)pyrimidine-2,4-diamine], the EC50 was 150 nM.
`COc1cccc2c(CCNc3nccc(Nc4ccc5[nH]c(C)cc5c4)n3)c[nH]c12` [Example 12, N^2-[2-(7-methoxy-1H-indol-3-yl)ethyl]-N^4-(2-methyl-1H-indol-5-yl)pyrimidine-2,4-diamine] showed an EC50 of 130 nM.
Work on `COC(=O)c1cc2cc(Nc3ccnc(NCCc4c[nH]c5ccc(OC)cc45)n3)ccc2[nH]1` [Example 16, methyl 5-{2-[2-(5-methoxy-1H-indol-3-yl)ethylamino]pyrimidin-4-ylamino}-1H-indole-2-carboxylate] yielded an EC50 of 940 nM.
`COc1ccc2[nH]cc(CCNc3nccc(Nc4ccc5[nH]c(C(=O)OCCO)cc5c4)n3)c2c1` [Example 17, 2-hydroxyethyl 5-{2-[2-(5-methoxy-1H-indol-3-yl)ethylamino]pyrimidin-4-ylamino}-1H-indole-2-carboxylate] was tested, and the EC50 was 1400 nM.
`COc1ccc2[nH]cc(CCNc3nccc(Nc4ccc5[nH]cnc5c4)n3)c2c1` [Example 18, N^4-(1H-benzo[d]imidazol-5-yl)-N^2-[2-(5-methoxy-1H-indol-3-yl)ethyl]pyrimidine-2,4-diamine] showed an EC50 of 420 nM.
In the case of `COc1ccc2[nH]cc(CCNc3nccc(Nc4ccc5cc[nH]c5c4)n3)c2c1` [Example 20, N^4-(1H-indol-6-yl)-N^2-[2-(5-methoxy-1H-indol-3-yl)ethyl]pyrimidine-2,4-diamine], the EC50 is reported as 140 nM.
Work on `COc1ccc2[nH]cc(CCNc3nccc(Nc4cccc5[nH]ccc45)n3)c2c1` [Example 21, N^4-(1H-indol-4-yl)-N^2-[2-(5-methoxy-1H-indol-3-yl)ethyl]pyrimidine-2,4-diamine] yielded an EC50 of 59 nM.
`Cc1cc2cc(Nc3nccc(NCCc4c[nH]c5ccccc45)n3)ccc2[nH]1` [Example 22, N^4-[2-(1H-indol-3-yl)ethyl]-N^2-(2-methyl-1H-indol-5-yl)pyrimidine-2,4-diamine] was tested, and the EC50 was 3400 nM.
Work on `COc1ccc2[nH]cc(CCNc3ccnc(Nc4ccc5[nH]c(C)cc5c4)n3)c2c1` [Example 23, N^4-[2-(5-methoxy-1H-indol-3-yl)ethyl]-N^2-(2-methyl-1H-indol-5-yl)pyrimidine-2,4-diamine] yielded an EC50 of 59 nM.
`c1ccc2c(CCNc3ccnc(Nc4ccc5cc[nH]c5c4)n3)c[nH]c2c1` [Example 24, N^4-[2-(1H-indol-3-yl)ethyl]-N^2-(1H-indol-6-yl)pyrimidine-2,4-diamine] showed an EC50 of 1000 to 10000 nM.
For `c1ccc2c(CCNc3ccnc(Nc4cccc5[nH]ccc45)n3)c[nH]c2c1` [Example 25, N^4-[2-(1H-indol-3-yl)ethyl]-N^2-(1H-indol-4-yl)pyrimidine-2,4-diamine], the EC50 was 1000 to 10000 nM.
Compound `Cc1cc(Nc2ccc3[nH]c(C)cc3c2)nc(NCCc2c[nH]c3ccccc23)n1` [Example 26, N^2-[2-(1H-indol-3-yl)ethyl]-6-methyl-N^4-(2-methyl-1H-indol-5-yl)pyrimidine-2,4-diamine] has an EC50 of 650 nM.
`COc1ccc2[nH]cc(CCNc3nc(Nc4ccc5[nH]c(C)cc5c4)cc(C(N)=O)n3)c2c1` [Example 28, 2-[2-(5-methoxy-1H-indol-3-yl)ethylamino]-6-(2-methyl-1H-indol-5-ylamino)pyrimidine-4-carboxamide] gave an EC50 of 58 nM.
With `COc1ccc2[nH]cc(CCNc3ncc(C)c(Nc4ccc5[nH]c(C)cc5c4)n3)c2c1` [Example 29, N^2-[2-(5-methoxy-1H-indol-3-yl)ethyl]-5-methyl-N^4-(2-methyl-1H-indol-5-yl)pyrimidine-2,4-diamine] the EC50 was 57 nM.
For `COc1ccc2[nH]cc(CCNc3nc(Nc4ccc5[nH]c(C)cc5c4)cc(N4CCN(C)CC4)n3)c2c1` [Example 30, N^2-[2-(5-methoxy-1H-indol-3-yl)ethyl]-N^4-(2-methyl-1H-indol-5-yl)-6-(4-methylpiperazin-1-yl)pyrimidine-2,4-diamine], the EC50 was 3000 nM.
`COc1cccc2[nH]cc(CCNc3nccc(Nc4ccc5[nH]c(C)cc5c4)n3)c12` [Example 47, N^2-[2-(4-methoxy-1H-indol-3-yl)ethyl]-N^4-(2-methyl-1H-indol-5-yl)pyrimidine-2,4-diamine] gave an EC50 of 330 nM.
`CCCOc1ccc2[nH]cc(CCNc3nccc(Nc4ccc5[nH]c(C)cc5c4)n3)c2c1` [Example 48, N^4-(2-methyl-1H-indol-5-yl)-N^2-[2-(5-propoxy-1H-indol-3-yl)ethyl]pyrimidine-2,4-diamine] gave an EC50 of 1300 nM.
`Cc1cc2cc(Nc3ccnc(NCCc4c[nH]c5ccc(OC(C)C)cc45)n3)ccc2[nH]1` [Example 49, N^2-[2-(5-isopropoxy-1H-indol-3-yl)ethyl]-N^4-(2-methyl-1H-indol-5-yl)pyrimidine-2,4-diamine] showed an EC50 of 100 nM.
Compound `COc1cc2[nH]cc(CCNc3nccc(Nc4ccc5[nH]c(C)cc5c4)n3)c2cc1OC` [Example 50, N^2-[2-(5,6-dimethoxy-1H-indol-3-yl)ethyl]-N^4-(2-methyl-1H-indol-5-yl)pyrimidine-2,4-diamine] has an EC50 of 180 nM.
`COc1cc(C)c2[nH]cc(CCNc3nccc(Nc4ccc5[nH]c(C)cc5c4)n3)c2c1` [Example 51, N^2-[2-(5-methoxy-7-methyl-1H-indol-3-yl)ethyl]-N^4-(2-methyl-1H-indol-5-yl)pyrimidine-2,4-diamine] showed an EC50 of 76 nM.
In the case of `COc1ccc2[nH]cc(CCNc3nccc(Nc4ccc5c(c4)ncn5C)n3)c2c1` [Example 52, N^2-[2-(5-methoxy-1H-indol-3-yl)ethyl]-N^4-(1-methyl-1H-benzo[d]imidazol-5-yl)pyrimidine-2,4-diamine], the EC50 is reported as 430 nM.
